Data: PubChem BioAssay (NCI)
Where “and” joins values, the source holds several entries; their conditions need not be identical. Equal entries are not always repeated.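 Exposure lasted 48 hours, with cells grown in 96-well plates and compounds tested at five concentrations. The concentration for 50% growth inhibition is given as GI50. TGI: concentration producing complete growth inhibition.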

Assays:
Assay in all cases: NCI anticancer screen, dose series, 48 h
A498 renal = system: A498 renal
A549 NSCLC = system: A549 NSCLC
HOP-62 NSCLC = system: HOP-62 NSCLC
KM12 colon = system: KM12 colon
MCF7 breast = system: MCF7 breast
NCI-H522 lung = system: NCI-H522 lung
OVCAR-5 ovarian = system: OVCAR-5 ovarian
SF-539 CNS = system: SF-539 CNS
UACC-257 melanoma = system: UACC-257 melanoma
UACC-62 melanoma = system: UACC-62 melanoma

Row | Compound | TGI (A498 renal) | TGI (A549 NSCLC) | TGI (HOP-62 NSCLC) | TGI (KM12 colon) | TGI (MCF7 breast) | TGI (NCI-H522 lung) | TGI (OVCAR-5 ovarian) | TGI (SF-539 CNS) | TGI (UACC-257 melanoma) | TGI (UACC-62 melanoma) | GI50 (A498 renal) | GI50 (A549 NSCLC) | GI50 (HOP-62 NSCLC) | GI50 (KM12 colon) | GI50 (MCF7 breast) | GI50 (NCI-H522 lung) | GI50 (OVCAR-5 ovarian) | GI50 (SF-539 CNS) | GI50 (UACC-257 melanoma) | GI50 (UACC-62 melanoma)
1 | C/C(=N\NC(N)=O)C(CN(C)C)C(c1ccccc1)c1c(O)c2ccccc2oc1=O (stereo unspecified) | > 100 µM | > 100 µM | > 100 µM | > 100 µM | > 100 µM | > 100 µM | > 100 µM | > 100 µM | > 100 µM | > 100 µM | – | – | – | – | – | – | – | – | – | –
2 | C[C@H](CSC(=O)c1ccccc1)C(=O)N1c2ccccc2C[C@H]1C(=O)O | > 100 µM | > 100 µM | > 100 µM | > 10 µM | > 100 µM | > 100 µM | > 100 µM | > 100 µM | > 100 µM | > 100 µM | – | – | – | – | – | – | – | – | – | –
3 | CCCCCc1c(C)[nH]c(/C=C2\N=C(c3ccc[nH]3)C=C2Oc2ccc(Cl)cc2)c1C | 3.33 µM and 0.609 µM | 0.382 µM and 0.229 µM | 14.6 µM | 1.5 µM and 0.614 µM | 2.15 µM and 3.57 µM | 1.02 µM and 1.28 µM | 4.26 µM | 0.992 µM and 0.474 µM | 3 µM and 2.78 µM | 0.163 µM and 0.0884 µM | 134 nM and 33 nM | 75.3 nM and 26.4 nM | 0.148 µM and 0.187 µM | 40 nM and 13.3 nM | 57.8 nM and 23.8 nM | 0.0455 µM and 0.0305 µM | 0.142 µM and 0.0383 µM | 125 nM and 40.6 nM | 0.28 µM and 0.0706 µM | 41.8 nM and 29.9 nM
4 | C[C@H](CS(C)(=O)=O)Nc1ncc2cc(Oc3ccc(F)cc3F)c(=O)n(C)c2n1 | > 25 µM | > 25 µM | > 25 µM | > 25 µM | > 25 µM | > 25 µM | > 25 µM | > 25 µM | > 25 µM | > 25 µM | > 25000 nM | > 25000 nM | > 25 µM | > 25000 nM | > 25000 nM | > 25 µM | > 25 µM | > 25000 nM | > 25 µM | > 25000 nM
5 | CCCCC[C@H]1C/C=C2/C(=O)C(Cl)=C[C@@H]2C/C=C\CCCC(=O)O[C@@H](CCCCC)C/C=C2/C(=O)C(Cl)=C[C@@H]2C/C=C\CCCC(=O)O1 | 1.41 µM | 1.15 µM | 1.01 µM | 0.92 µM | 1.93 µM | 0.78 µM | 2.94 µM | 1.97 µM | 0.932 µM | 0.62 µM | 465 nM | 426 nM | 0.416 µM | 388 nM | 155 nM | 0.352 µM | 0.689 µM | 518 nM | 0.366 µM | 297 nM
6 | Cn1cc(-c2ccc(CNc3cc(-c4cnc5cc(OCCCN6CCCC6)ccn45)ncn3)cc2)cn1 | 31.9 µM | 3.49 µM | 31.9 µM | 3.68 µM | 10.4 µM | 37.8 µM | 4.16 µM | 2.46 µM | 5.5 µM | 29.2 µM | 16200 nM | 1730 nM | 14.4 µM | 1860 nM | 2450 nM | 18.6 µM | 2.04 µM | 1170 nM | 2.23 µM | 13200 nM
7 | C=C(C)[C@@H]1CC[C@@]2(C)[C@H]1[C@H]1CCC3[C@@]4(C)CC[C@H](O)C(C)(C)[C@@H]4CC[C@@]3(C)[C@]1(C)C[C@@H]2O (stereo partly specified) | > 100 µM | > 100 µM | > 100 µM | > 100 µM | > 100 µM | > 100 µM | > 100 µM | > 100 µM | > 100 µM | – | – | – | – | – | – | – | – | – | – | –
8 | Cc1cn2c(/C=N/N/C(N)=N\N)c(-c3ccc(Cl)c([N+](=O)[O-])c3)nc2s1 | 21.5 µM | – | 15.9 µM | 2.29 µM | > 50 µM | 32.1 µM | 2.1 µM | 1.83 µM | 4.87 µM | 1.67 µM | 7580 nM | – | 4.98 µM | 1020 nM | 1560 nM | 4.58 µM | 1.03 µM | 993 nM | 1.41 µM | 883 nM
9 | CCc1c2c(nc3cccc(N)c13)-c1cc3c(c(=O)n1C2)COC(=O)[C@]3(O)CC | 0.487 µM and 0.0609 µM | 0.504 µM | 4.29 µM | – | 0.0101 µM | – | 0.115 µM | 0.00491 µM | – | – | 56.9 nM | 8.17 nM | 0.00143 µM | 159 nM | < 1 nM | 0.00459 µM | – | < 1 nM | – | < 1 nM
10 | Nc1nc(Nc2cccc(F)c2)nc2ccccc12 | 44.8 µM | > 100 µM | 38.5 µM | 42.4 µM | > 100 µM | 54 µM | 43.5 µM | 34.2 µM | 34.1 µM | 38.3 µM | 1400 nM | 36900 nM | 17.1 µM | 18100 nM | 15600 nM | 23.9 µM | 17.4 µM | 16800 nM | 17.4 µM | 17800 nM
11 | CC1=CC(=O)C(C(C)=Nc2ccccc2Cl)C(=O)O1 (stereo unspecified) | > 100 µM | > 100 µM | > 100 µM | > 100 µM | > 100 µM | > 100 µM | > 100 µM | > 100 µM | > 100 µM | > 100 µM | > 100000 nM | > 100000 nM | > 100 µM | > 100000 nM | > 100000 nM | > 100 µM | > 100 µM | > 100000 nM | > 100 µM | > 100000 nM
12 | CCc1c[nH]c2ncnc(N3CC[C@@](N)(CNC(=O)c4ccc(F)cc4F)C3)c12 | 53.4 µM | > 86.9 µM | > 100 µM | > 100 µM | > 100 µM | > 75.7 µM | > 100 µM | > 100 µM | > 100 µM | > 100 µM | 16400 nM | 24500 nM | 30.5 µM | 12600 nM | 26600 nM | 29.6 µM | 80 µM | 20400 nM | 34.5 µM | 33000 nM
13 | COc1cc2cc(Oc3ccc(NC(=O)c4ccc(Cl)c(C(F)(F)F)c4)cc3)c(C)nc2cc1OC | 86.3 µM | > 100 µM | > 100 µM | > 100 µM | > 100 µM | 83.3 µM | > 100 µM | > 100 µM | 97.5 µM | > 100 µM | 2420 nM | 10300 nM | 42.6 µM | 12300 nM | 8950 nM | 8.78 µM | 55.9 µM | 41300 nM | 18.2 µM | 18200 nM
14 | Cc1ncc([N+](=O)[O-])n1CCNC(=O)CCCn1cnc([N+](=O)[O-])n1 | > 100 µM | > 100 µM | > 100 µM | > 100 µM | > 100 µM | > 100 µM | > 100 µM | > 100 µM | > 100 µM | > 100 µM | – | – | – | – | – | – | – | – | – | –
15 | O=[N+]([O-])c1nccn1CC1OC(n2ccnc2[N+](=O)[O-])C(O)C(O)C1O (stereo unspecified) | > 100 µM | > 100 µM | > 100 µM | > 100 µM | > 100 µM | – | > 100 µM | – | > 100 µM | > 100 µM | – | – | – | – | – | – | – | – | – | –
16 | COc1ccccc1-c1c(C)nn2c(NCc3ccccn3)cc(C)nc12 | > 50 µM | > 50 µM | > 50 µM | > 50 µM | > 50 µM | > 50 µM | > 50 µM | > 50 µM | > 50 µM | > 50 µM | 3840 nM | 26700 nM | 34.7 µM | > 46600 nM | 2920 nM | 21.3 µM | > 50 µM | 44300 nM | 11.2 µM | 16900 nM
17 | Cn1cc(-c2ccc3c(c2)CCN3C(=O)Cc2cccc(C(F)(F)F)c2)c2c(N)ncnc21 | 6.56 µM | 25.5 µM | 29.2 µM | 15.5 µM | 18.4 µM | 29 µM | 30.2 µM | 11.8 µM | 24.3 µM | 16.9 µM | 453 nM | 7610 nM | 8.17 µM | 401 nM | 4500 nM | 10.1 µM | 12.2 µM | 1950 nM | 5.37 µM | 2720 nM
18 | CCN1C(=O)N(CC)C2C1NN=c1s/c(=C3\C(=O)N(C)c4ccccc43)c(=O)n12 (stereo unspecified) | 0.908 µM | > 100 µM | > 100 µM | > 100 µM | 31.2 µM | 33 µM | > 100 µM | 3.77 µM | > 100 µM | > 100 µM | 230 nM | 1830 nM | 2.25 µM | 647 nM | 373 nM | 0.609 µM | 3.3 µM | 545 nM | 4.2 µM | 431 nM
19 | O=C(Nc1ccc2c(c1)oc(=O)c1ccccc12)C(Cl)Cl | > 100 µM | > 100 µM | > 100 µM | > 100 µM | > 100 µM | > 100 µM | > 100 µM | > 100 µM | > 100 µM | > 100 µM | – | – | – | – | – | – | – | – | – | –
20 | CC[CH2][Pb]([CH2]CC)([CH2]CC)[NH]S(=O)(=O)c1ccc(C)cc1 | 0.058 µM | 0.678 µM | 0.422 µM | 0.312 µM | 0.418 µM | – | 0.242 µM | 0.155 µM | 0.245 µM | 0.0995 µM | 21.5 nM | 86.8 nM | 0.0909 µM | 147 nM | 65.1 nM | – | 0.0667 µM | 65.9 nM | 0.0773 µM | 27.2 nM
21 | Cc1ccc2c(c1)ncn2-c1ncnc2c1CC(C)c1ccccc1N2C (stereo unspecified) | 17 µM | 17.5 µM | 13.6 µM | 14.6 µM | 12.5 µM | 5.68 µM | – | 11.6 µM | – | – | 56.7 nM | 248 nM | 0.174 µM | 106 nM | 36.8 nM | 0.121 µM | – | 89.6 nM | – | –
